From patent US20120115827A1, “3-AMINOBENZAMIDE COMPOUNDS AND VANILLOID RECEPTOR SUBTYPE 1 (VR1) INHIBITORS” (Japan Tobacco Inc., priority 2004, published 2012)
pIC50: −log10 of the molar value.

These molecules were tested against T1, human VR1 (Homo sapiens, UniProt Q8NER1) (assay: Inhibition of Ca2+ entry in cells caused by proton (VR1 agonist)). Settings: Rat glioma (C6BU1) cells stably expressing human VR1; proton stimulation to pH 5.5; Fura 2-AM fluorescence; read-out: In vitro IC50.
T1 construct: expressed in transfected cells
T1 sequence (Q8NER1 whole entry): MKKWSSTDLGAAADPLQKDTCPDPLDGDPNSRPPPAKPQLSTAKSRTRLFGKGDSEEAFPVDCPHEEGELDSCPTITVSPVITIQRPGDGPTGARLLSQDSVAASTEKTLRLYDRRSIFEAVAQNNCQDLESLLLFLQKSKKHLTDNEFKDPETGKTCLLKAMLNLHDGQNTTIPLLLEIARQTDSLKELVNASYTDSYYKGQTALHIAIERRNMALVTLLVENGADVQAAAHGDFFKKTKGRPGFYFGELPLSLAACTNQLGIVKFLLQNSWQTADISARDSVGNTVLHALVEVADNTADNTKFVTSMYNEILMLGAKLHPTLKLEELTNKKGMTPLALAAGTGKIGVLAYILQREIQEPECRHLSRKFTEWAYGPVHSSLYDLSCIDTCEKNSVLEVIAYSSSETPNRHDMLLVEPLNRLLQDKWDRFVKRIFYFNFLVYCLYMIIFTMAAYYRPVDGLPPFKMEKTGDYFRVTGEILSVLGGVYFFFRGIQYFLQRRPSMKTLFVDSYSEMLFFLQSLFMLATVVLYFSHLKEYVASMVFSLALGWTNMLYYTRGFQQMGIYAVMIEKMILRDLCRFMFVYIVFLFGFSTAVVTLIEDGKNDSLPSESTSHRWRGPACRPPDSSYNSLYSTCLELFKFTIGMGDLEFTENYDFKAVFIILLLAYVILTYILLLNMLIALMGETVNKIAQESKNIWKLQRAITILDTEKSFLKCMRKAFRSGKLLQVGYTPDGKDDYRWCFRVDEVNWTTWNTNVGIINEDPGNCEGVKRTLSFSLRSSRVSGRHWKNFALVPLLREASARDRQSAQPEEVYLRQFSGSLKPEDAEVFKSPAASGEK
Format: cell-based
Procedure: The assay for evaluation of VR1 inhibition by the inventive compounds will be described below. The assay was intended to evaluate in vitro inhibition of Ca^2+ entry in cells caused by proton, one of the VR1 agonists.
Rat glioma (C6BU1) cells stably expressing human VR1 were suspended in 20 mM MES buffer (at pH 6.8, contg. 20 mM 2-morpholinoethanesulfonate (referred to as MES hereinafter), 115 mM NaCl, 5 mM KCl, 1 mM MgCl2 and 14 mM D-glucose) to make a cell density of 1×10^6 cells/mL. A fluorescent dye, Fura 2-AM solution (Dojindo Corporate, Cat. No. 343-05401) was added to the suspension to make a 5 μM concentration thereof. Further, Pluronic F-127 (Wako Pure Chemical Industries, Ltd., Cat. No. P6866) was added to make a 0.1% content thereof. Then, the suspension was incubated at 37° C. for 30 min. The cells were harvested and washed three times with 20 mM MES buffer. The cells were suspended again to make a cell density of 5×10^5 cells/mL. A 500-μL portion of the suspension was taken with a cuvette (MC MEDICAL, INC., Cat. No. SSR3121), to which […] MES buffer containing 250 mM CaCl2 was added to incorporate Ca^2+ into the cells. At the same time, 5 μL of a test compound solution (in a range of 100 μM to 10 nM in DMSO) was also added to provide a final concentration thereof in a range of 1 μM to 0.1 nM. Alternatively, 5 μl of DMSO was added as control to provide a final concentration of 1% DMSO. The suspension was set in an intracellular ionometer (CAF-110; JASCO) 10 min after those additions. The cells were stimulated with protons by addition of 60 μL of 20 mM MES buffer at pH 1.1 to the suspension to set its pH at 5.5. The activity of the test compound was determined as a difference between the minimum of fluorescence intensity before agonist stimulation and its maximum after the stimulation. The value of IC50 was derived from percentage of inhibition by the test compound compared with the control.

With `COCc1cnc(N(CC(N)=O)c2cc(C(=O)Nc3ccc(C(F)(F)F)cc3)ccc2Cl)c(Cl)c1` [Example 72, 4-chloro-3-[N-(3-chloro-5-methoxymethylpyridin-2-yl)-N-(carbamoylmethyl)amino]-N-(trifluoromethylphenyl)-benzamide] as the molecule, how does the pIC50 read?
Its pIC50 is ≥ 7.00.

With `CCOC(=O)c1cnc(N(C)c2cc(C(=O)Nc3ccc(C(C)(C)C)cc3)ccc2Cl)c(Cl)c1` [Example 73, Ethyl 6-{[5-(4-tert-butylphenylcarbamoyl)-2-chlorophenyl]-methyl-amino}-5-chloronicotinate] as the molecule, how does the pIC50 read?
The pIC50 was 6.00 to 7.00.

How did the pIC50 turn out when `CN(c1cc(C(=O)Nc2ccc(C(C)(C)C)cc2)ccc1Cl)c1ncc(C(N)=O)cc1Cl` [Example 75, 6-{[5-(4-tert-butylphenylcarbamoyl)-2-chlorophenyl]-methyl-amino}-5-chloronicotinamide] was run?
Its pIC50 is ≥ 7.00.

How did the pIC50 turn out when `CNC(=O)c1cnc(N(C)c2cc(C(=O)Nc3ccc(C(C)(C)C)cc3)ccc2Cl)c(Cl)c1` [Example 76, 6-{[5-(4-tert-butylphenylcarbamoyl)-2-chlorophenyl]-methyl-amino}-5-chloro-N-methylnicotinamide] was run?
The pIC50 was 6.00 to 7.00.

With `CN(C)C(=O)c1cnc(N(C)c2cc(C(=O)Nc3ccc(C(C)(C)C)cc3)ccc2Cl)c(Cl)c1` [Example 77, 6-{[5-(4-tert-butylphenylcarbamoyl)-2-chlorophenyl]-methyl-amino}-5-chloro-N,N-dimethylnicotinamide] as the molecule, how does the pIC50 read?
The pIC50 was 6.00 to 7.00.

`CN(c1cc(C(=O)Nc2ccc(C(C)(C)C)cc2)ccc1Cl)c1ncc(CO)cc1Cl` [Example 78, N-(4-tert-butylphenyl)-4-chloro-3-[N-(3-chloro-5-hydroxymethylpyridin-2-yl)-N-methyl-amino]benzamide] was tested. Which pIC50 did it give?
The pIC50 was ≥ 7.00.

With `CN(c1cc(C(=O)Nc2ccc(C(F)(F)F)cc2)ccc1Cl)c1ncc(CO)cc1Cl` [Example 79, 4-chloro-3-[N-(3-chloro-5-hydroxymethylpyridin-2-yl)-N-methyl-amino]-N-(4-trifluoromethylphenyl)-benzamide] as the molecule, how does the pIC50 read?
The pIC50 was ≥ 7.00.

With `CN(c1cc(C(=O)Nc2ccc(Cl)cc2)ccc1Cl)c1ncc(CO)cc1Cl` [Example 80, 4-chloro-3-[N-(3-chloro-5-hydroxymethylpyridin-2-yl)-N-methyl-amino]-N-(4-chlorophenyl)-benzamide] as the molecule, how does the pIC50 read?
Its pIC50 is ≥ 7.00.

How did the pIC50 turn out when `CN(c1cc(C(=O)Nc2ccc(OC(F)(F)F)cc2)ccc1Cl)c1ncc(CO)cc1Cl` [Example 81, 4-chloro-3-[N-(3-chloro-5-hydroxymethylpyridin-2-yl)-N-methyl-amino]-N-(4-trifluoromethoxyphenyl)-benzamide] was run?
Its pIC50 is ≥ 7.00.

With `CN(c1cc(C(=O)Nc2ccc(C(F)(F)F)cc2)ccc1F)c1ncc(CO)cc1Cl` [Example 82, 3-[N-(3-chloro-5-hydroxymethylpyridin-2-yl)-N-methyl-amino]-4-fluoro-N-(4-trifluoromethylphenyl)-benzamide] as the molecule, how does the pIC50 read?
The pIC50 was ≥ 7.00.

`CN(c1cc(C(=O)Nc2ccc(OC(F)(F)F)cc2)ccc1F)c1ncc(CO)cc1Cl` [Example 83, 3-[N-(3-chloro-5-hydroxymethylpyridin-2-yl)-N-methyl-amino]-4-fluoro-N-(4-trifluoromethoxyphenyl)-benzamide] was tested. Which pIC50 did it give?
Its pIC50 is ≥ 7.00.
